# Results as given in article PMC3946003, “Protein kinase inhibitor SU6668 attenuates positive regulation of Gli proteins in cancer and multipotent progenitor cells” (Biochimica et Biophysica Acta, 2014).
# Tests used:
# ULK3 [1] = molecular target: T1, ULK3 (Homo sapiens, UniProt Q6PHR2)
# T1 sequence (Q6PHR2 1-472): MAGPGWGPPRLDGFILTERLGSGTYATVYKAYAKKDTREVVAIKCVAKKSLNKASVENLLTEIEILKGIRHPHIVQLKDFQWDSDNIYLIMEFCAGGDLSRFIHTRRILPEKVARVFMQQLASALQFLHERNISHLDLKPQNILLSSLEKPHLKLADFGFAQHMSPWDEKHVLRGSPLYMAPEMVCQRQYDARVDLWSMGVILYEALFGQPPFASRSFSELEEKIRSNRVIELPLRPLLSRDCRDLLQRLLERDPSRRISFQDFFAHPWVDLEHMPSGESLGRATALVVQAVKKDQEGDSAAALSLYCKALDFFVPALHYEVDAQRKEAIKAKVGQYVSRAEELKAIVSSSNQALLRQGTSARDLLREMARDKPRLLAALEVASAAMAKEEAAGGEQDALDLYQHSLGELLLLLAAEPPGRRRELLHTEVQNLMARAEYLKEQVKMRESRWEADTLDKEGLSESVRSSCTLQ
# ULK3 [2] = molecular target: T1, ULK3; assay: in vitro kinase assay (ULK3 autophosphorylation, […] ATP); Ki calculated from IC50 […]; type: biochemical; set-up: bacterially expressed and purified His-tagged ULK3 protein
Ki (ULK3 [2]) [nM],SMILES,Km (ULK3 [1]) [µM]
,Nc1ncnc2c1ncn2[C@@H]1O[C@H](COP(=O)(O)OP(=O)(O)OP(=O)(O)O)[C@@H](O)[C@H]1O [ATP],3.2
~200,"Cc1[nH]c(/C=C2\C(=O)Nc3ccccc32)c(C)c1CCC(=O)O [SU6668, (Z)-5-[(1,2-dihydro-2-oxo-3H-indol-3-ylidene)methyl]-2,4-dimethyl-1H-pyrrole-3-propanoic acid]",
